According to PMC5797143, “Epigenetic modulation of inflammation and synaptic plasticity promotes resilience against stress in mice” (Nature Communications, 2018):

Assays:
Assay in all cases: Radioligand binding assay
[1] = target: T1, 5-HT1D (serotonin receptor) (Homo sapiens, UniProt P28221); conditions: for Binding activity, 5-HT1D (percentage): 10 µM, HEK membrane fractions, quadruplicate
T1 construct: expressed in transfected cells; crude membrane fractions
Description: (§1) Radioligand binding assays were performed as previously described. Briefly, crude membrane fractions prepared from a stable HEK cell line expressing recombinant receptors were mixed with a radiolabeled specific ligand and 10 µM of competitor compound (DHCA, Mal-gluc, or non-specific ligand). The percentage of radioligand binding was subsequently measured.

[2] = target: T2, DAT (dopamine transporter) (Homo sapiens, UniProt Q01959); conditions: 10 µM; HEK membrane fractions; quadruplicate
T2 construct: purchased NIMH Psychoactive Drug Screening Program (PDSP)
Description: as §1

D5 (dopamine receptor) = target: T3, D5 (dopamine receptor) (Homo sapiens, UniProt P21918); conditions: 10 µM; HEK membrane fractions; quadruplicate
T3 construct: purchased NIMH Psychoactive Drug Screening Program (PDSP)
Description: as §1

[3] = target: T4, 5-HT2B (serotonin receptor) (Homo sapiens, UniProt P41595); conditions: 10 µM; HEK membrane fractions; quadruplicate
T4 construct: purchased NIMH Psychoactive Drug Screening Program (PDSP)
Description: as §1

[4] = target: T5, Alpha2B (alpha adrenergic receptor) (Homo sapiens, UniProt P18089); conditions: 10 µM; HEK membrane fractions; quadruplicate
T5 construct: purchased NIMH Psychoactive Drug Screening Program (PDSP)
Description: as §1

[5] = target: T6, 5-HT3 (serotonin receptor) (Homo sapiens, UniProt P46098); conditions: for Binding activity, 5-HT3 (percentage): 10 µM, HEK membrane fractions, quadruplicate
T6 construct: expressed in transfected cells; crude membrane fractions
T6 sequence (P46098 24-478): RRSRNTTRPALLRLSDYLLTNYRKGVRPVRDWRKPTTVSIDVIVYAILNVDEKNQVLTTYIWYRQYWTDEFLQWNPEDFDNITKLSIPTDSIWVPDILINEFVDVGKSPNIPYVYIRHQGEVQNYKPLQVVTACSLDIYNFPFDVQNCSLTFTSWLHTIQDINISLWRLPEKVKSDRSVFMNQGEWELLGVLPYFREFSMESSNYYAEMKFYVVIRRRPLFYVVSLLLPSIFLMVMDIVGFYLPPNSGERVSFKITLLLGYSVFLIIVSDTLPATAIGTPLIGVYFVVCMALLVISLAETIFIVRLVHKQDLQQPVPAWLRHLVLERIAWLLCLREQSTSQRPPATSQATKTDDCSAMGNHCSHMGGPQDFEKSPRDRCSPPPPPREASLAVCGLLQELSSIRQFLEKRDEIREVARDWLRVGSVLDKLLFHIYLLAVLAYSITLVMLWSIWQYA
Description: as §1

DOR (δ-opioid receptor) = target: T7, DOR (δ-opioid receptor) (Homo sapiens, UniProt P41143); conditions: 10 µM; HEK membrane fractions; quadruplicate
T7 construct: purchased NIMH Psychoactive Drug Screening Program (PDSP)
Description: as §1

M3 (muscarinic receptor) = target: T8, M3 (muscarinic receptor) (Homo sapiens, UniProt P20309); conditions: 10 µM; HEK membrane fractions; quadruplicate
T8 construct: purchased NIMH Psychoactive Drug Screening Program (PDSP)
Description: as §1

M5 (muscarinic receptor) = target: T9, M5 (muscarinic receptor) (Homo sapiens, UniProt P08912); conditions: 10 µM; HEK membrane fractions; quadruplicate
T9 construct: purchased NIMH Psychoactive Drug Screening Program (PDSP)
Description: as §1

[6] = target: T10, 5-HT2A (serotonin receptor) (Homo sapiens, UniProt P28223); conditions: 10 µM; HEK membrane fractions; quadruplicate
T10 construct: purchased NIMH Psychoactive Drug Screening Program (PDSP)
Description: as §1

[7] = target: T11, 5-hT1e (serotonin receptor) (Homo sapiens, UniProt P28566); conditions: 10 µM; HEK membrane fractions; quadruplicate
T11 construct: purchased NIMH Psychoactive Drug Screening Program (PDSP)
Description: as §1

[8] = target: T12, Beta2 (beta adrenergic receptor) (Homo sapiens, UniProt P07550); conditions: 10 µM; HEK membrane fractions; quadruplicate
T12 construct: purchased NIMH Psychoactive Drug Screening Program (PDSP)
Description: as §1

[9] = target: T13, 5-HT1B (serotonin receptor) (Homo sapiens, UniProt P28222); conditions: 10 µM; HEK membrane fractions; quadruplicate
T13 construct: purchased NIMH Psychoactive Drug Screening Program (PDSP)
Description: as §1

[10] = target: T14, 5-hT5a (serotonin receptor) (Homo sapiens, UniProt P47898); conditions: 10 µM; HEK membrane fractions; quadruplicate
T14 construct: purchased NIMH Psychoactive Drug Screening Program (PDSP)
Description: as §1

D1 (dopamine receptor) = target: T15, D1 (dopamine receptor) (Homo sapiens, UniProt P21728); conditions: 10 µM; HEK membrane fractions; quadruplicate
T15 construct: purchased NIMH Psychoactive Drug Screening Program (PDSP)
Description: as §1

D3 (dopamine receptor) = target: T16, D3 (dopamine receptor) (Homo sapiens, UniProt P35462); conditions: 10 µM; HEK membrane fractions; quadruplicate
T16 construct: purchased NIMH Psychoactive Drug Screening Program (PDSP)
Description: as §1

[11] = target: T17, Beta3 (beta adrenergic receptor) (Homo sapiens, UniProt P13945); conditions: 10 µM; HEK membrane fractions; quadruplicate
T17 construct: purchased NIMH Psychoactive Drug Screening Program (PDSP)
Description: as §1

[12] = target: T18, Beta1 (beta adrenergic receptor) (Homo sapiens, UniProt P08588); conditions: 10 µM; HEK membrane fractions; quadruplicate
T18 construct: purchased NIMH Psychoactive Drug Screening Program (PDSP)
Description: as §1

[13] = target: T19, 5-HT2C (serotonin receptor) (Homo sapiens, UniProt P28335); conditions: 10 µM; HEK membrane fractions; quadruplicate
T19 construct: purchased NIMH Psychoactive Drug Screening Program (PDSP)
Description: as §1

[14] = target: T20, Alpha2C (alpha adrenergic receptor) (Homo sapiens, UniProt P18825); conditions: 10 µM; HEK membrane fractions; quadruplicate
T20 construct: purchased NIMH Psychoactive Drug Screening Program (PDSP)
Description: as §1

[15] = target: T21, SERT (serotonin transporter) (Homo sapiens, UniProt P31645); conditions: 10 µM; HEK membrane fractions; quadruplicate
T21 construct: purchased NIMH Psychoactive Drug Screening Program (PDSP)
Description: as §1

[16] = test system: PBR (peripheral benzodiazepine receptor); conditions: 10 µM; HEK membrane fractions; quadruplicate
Description: as §1

M4 (muscarinic receptor) = target: T22, M4 (muscarinic receptor) (Homo sapiens, UniProt P08173); conditions: 10 µM; HEK membrane fractions; quadruplicate
T22 construct: purchased NIMH Psychoactive Drug Screening Program (PDSP)
Description: as §1

[17] = target: T23, Alpha1D (alpha adrenergic receptor) (Homo sapiens, UniProt P25100); conditions: 10 µM; HEK membrane fractions; quadruplicate
T23 construct: purchased NIMH Psychoactive Drug Screening Program (PDSP)
Description: as §1

D4 (dopamine receptor) = target: T24, D4 (dopamine receptor) (Homo sapiens, UniProt P21917); conditions: 10 µM; HEK membrane fractions; quadruplicate
T24 construct: purchased NIMH Psychoactive Drug Screening Program (PDSP)
Description: as §1

[18] = target: T25, Alpha2A (alpha adrenergic receptor) (Homo sapiens, UniProt P08913); conditions: 10 µM; HEK membrane fractions; quadruplicate
T25 construct: purchased NIMH Psychoactive Drug Screening Program (PDSP)
Description: as §1

[19] = target: T26, Alpha1A (alpha adrenergic receptor) (Homo sapiens, UniProt P35348); conditions: 10 µM; HEK membrane fractions; quadruplicate
T26 construct: purchased NIMH Psychoactive Drug Screening Program (PDSP)
Description: as §1

D2 (dopamine receptor) = target: T27, D2 (dopamine receptor) (Homo sapiens, UniProt P14416); conditions: 10 µM; HEK membrane fractions; quadruplicate
T27 construct: purchased NIMH Psychoactive Drug Screening Program (PDSP)
Description: as §1

[20] = target: T28, 5-HT6 (serotonin receptor) (Homo sapiens, UniProt P50406); conditions: 10 µM; HEK membrane fractions; quadruplicate
T28 construct: purchased NIMH Psychoactive Drug Screening Program (PDSP)
Description: as §1

MOR (µ-opioid receptor) = target: T29, MOR (µ-opioid receptor) (Homo sapiens, UniProt P35372); conditions: 10 µM; HEK membrane fractions; quadruplicate
T29 construct: purchased NIMH Psychoactive Drug Screening Program (PDSP)
Description: as §1

M1 (muscarinic receptor) = target: T30, M1 (muscarinic receptor) (Homo sapiens, UniProt P11229); conditions: 10 µM; HEK membrane fractions; quadruplicate
T30 construct: purchased NIMH Psychoactive Drug Screening Program (PDSP)
Description: as §1

[21] = target: T31, Alpha1B (alpha adrenergic receptor) (Homo sapiens, UniProt P35368); conditions: 10 µM; HEK membrane fractions; quadruplicate
T31 construct: purchased NIMH Psychoactive Drug Screening Program (PDSP)
Description: as §1

[22] = test system: BZP RBS (rat brain benzylpiperazine site); conditions: 10 µM; quadruplicate
Description: as §1

T1 sequence (P28221 whole entry, species assumed): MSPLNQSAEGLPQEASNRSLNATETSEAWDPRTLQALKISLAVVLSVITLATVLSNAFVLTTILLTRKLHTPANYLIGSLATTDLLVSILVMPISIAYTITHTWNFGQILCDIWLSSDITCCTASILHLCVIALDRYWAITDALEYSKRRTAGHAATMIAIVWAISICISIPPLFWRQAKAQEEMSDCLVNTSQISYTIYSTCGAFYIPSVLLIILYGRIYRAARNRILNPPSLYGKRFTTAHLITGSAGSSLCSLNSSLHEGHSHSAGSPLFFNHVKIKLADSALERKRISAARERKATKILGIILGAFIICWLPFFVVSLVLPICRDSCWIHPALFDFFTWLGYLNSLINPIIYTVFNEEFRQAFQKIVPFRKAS
T31 sequence (P35368 whole entry): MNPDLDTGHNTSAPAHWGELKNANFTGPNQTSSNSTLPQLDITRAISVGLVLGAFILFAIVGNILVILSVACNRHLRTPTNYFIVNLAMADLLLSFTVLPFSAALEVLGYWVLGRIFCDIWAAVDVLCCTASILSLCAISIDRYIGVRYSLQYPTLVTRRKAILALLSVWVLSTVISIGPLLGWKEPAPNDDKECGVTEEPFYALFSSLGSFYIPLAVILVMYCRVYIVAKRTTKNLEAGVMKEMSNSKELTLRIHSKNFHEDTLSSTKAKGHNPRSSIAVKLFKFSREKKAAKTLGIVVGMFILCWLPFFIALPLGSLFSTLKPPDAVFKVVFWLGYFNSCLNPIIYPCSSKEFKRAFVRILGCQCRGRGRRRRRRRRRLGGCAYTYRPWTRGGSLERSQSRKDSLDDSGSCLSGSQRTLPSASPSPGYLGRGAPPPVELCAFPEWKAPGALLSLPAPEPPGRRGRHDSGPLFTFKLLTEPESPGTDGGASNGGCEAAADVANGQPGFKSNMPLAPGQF
T2 sequence (Q01959 whole entry): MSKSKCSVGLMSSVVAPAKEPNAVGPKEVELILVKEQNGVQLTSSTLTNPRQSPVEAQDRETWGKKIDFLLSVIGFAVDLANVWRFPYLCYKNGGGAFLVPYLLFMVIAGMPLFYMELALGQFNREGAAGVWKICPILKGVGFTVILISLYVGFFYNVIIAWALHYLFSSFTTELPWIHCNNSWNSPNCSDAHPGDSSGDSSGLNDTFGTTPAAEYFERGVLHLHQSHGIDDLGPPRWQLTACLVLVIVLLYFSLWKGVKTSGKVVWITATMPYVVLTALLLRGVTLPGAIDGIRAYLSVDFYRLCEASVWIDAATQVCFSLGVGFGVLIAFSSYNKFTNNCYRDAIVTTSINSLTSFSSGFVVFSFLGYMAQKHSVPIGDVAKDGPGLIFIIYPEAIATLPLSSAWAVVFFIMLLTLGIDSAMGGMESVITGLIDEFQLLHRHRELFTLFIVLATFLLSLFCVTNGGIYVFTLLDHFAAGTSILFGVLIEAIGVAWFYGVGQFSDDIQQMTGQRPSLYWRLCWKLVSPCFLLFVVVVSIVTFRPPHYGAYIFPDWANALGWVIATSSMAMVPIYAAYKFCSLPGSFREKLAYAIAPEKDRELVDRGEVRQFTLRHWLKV
T20 sequence (P18825 whole entry): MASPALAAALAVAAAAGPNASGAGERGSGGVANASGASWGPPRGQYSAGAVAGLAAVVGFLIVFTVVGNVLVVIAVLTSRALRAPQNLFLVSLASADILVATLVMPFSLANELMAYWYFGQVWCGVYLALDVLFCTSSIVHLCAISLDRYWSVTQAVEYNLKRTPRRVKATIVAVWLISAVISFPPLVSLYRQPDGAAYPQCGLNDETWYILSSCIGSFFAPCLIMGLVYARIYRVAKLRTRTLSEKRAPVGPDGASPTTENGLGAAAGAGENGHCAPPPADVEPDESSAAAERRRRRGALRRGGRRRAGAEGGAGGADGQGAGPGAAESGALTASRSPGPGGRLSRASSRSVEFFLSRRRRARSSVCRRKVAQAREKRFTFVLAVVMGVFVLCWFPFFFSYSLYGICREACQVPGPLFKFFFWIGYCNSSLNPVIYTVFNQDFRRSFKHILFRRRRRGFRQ
T8 sequence (P20309 whole entry): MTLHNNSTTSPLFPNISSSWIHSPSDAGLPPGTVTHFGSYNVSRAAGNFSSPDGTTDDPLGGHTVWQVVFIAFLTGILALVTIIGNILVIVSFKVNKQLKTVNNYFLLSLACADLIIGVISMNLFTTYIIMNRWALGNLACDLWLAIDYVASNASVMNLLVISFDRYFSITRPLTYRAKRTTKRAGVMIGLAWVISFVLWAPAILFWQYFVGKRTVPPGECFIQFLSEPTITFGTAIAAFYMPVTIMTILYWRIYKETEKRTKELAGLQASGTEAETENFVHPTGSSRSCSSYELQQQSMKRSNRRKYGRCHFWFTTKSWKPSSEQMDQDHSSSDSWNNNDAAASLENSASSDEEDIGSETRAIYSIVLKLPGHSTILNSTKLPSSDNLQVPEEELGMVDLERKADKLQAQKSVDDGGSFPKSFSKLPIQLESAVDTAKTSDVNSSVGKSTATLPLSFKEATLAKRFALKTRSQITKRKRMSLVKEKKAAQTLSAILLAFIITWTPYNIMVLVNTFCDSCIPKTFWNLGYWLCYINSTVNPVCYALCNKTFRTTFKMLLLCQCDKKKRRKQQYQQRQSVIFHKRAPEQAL
T13 sequence (P28222 whole entry): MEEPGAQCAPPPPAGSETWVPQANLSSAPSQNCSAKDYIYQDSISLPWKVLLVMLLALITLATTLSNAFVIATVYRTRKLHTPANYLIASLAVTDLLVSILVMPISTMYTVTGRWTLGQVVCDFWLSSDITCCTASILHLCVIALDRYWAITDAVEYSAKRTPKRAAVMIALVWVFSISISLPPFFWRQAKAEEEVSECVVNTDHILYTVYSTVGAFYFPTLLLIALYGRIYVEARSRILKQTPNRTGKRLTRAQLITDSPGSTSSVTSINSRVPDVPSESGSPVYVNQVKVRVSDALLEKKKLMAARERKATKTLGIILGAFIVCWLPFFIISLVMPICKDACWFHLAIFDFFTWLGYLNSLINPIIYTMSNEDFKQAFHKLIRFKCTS
T15 sequence (P21728 whole entry): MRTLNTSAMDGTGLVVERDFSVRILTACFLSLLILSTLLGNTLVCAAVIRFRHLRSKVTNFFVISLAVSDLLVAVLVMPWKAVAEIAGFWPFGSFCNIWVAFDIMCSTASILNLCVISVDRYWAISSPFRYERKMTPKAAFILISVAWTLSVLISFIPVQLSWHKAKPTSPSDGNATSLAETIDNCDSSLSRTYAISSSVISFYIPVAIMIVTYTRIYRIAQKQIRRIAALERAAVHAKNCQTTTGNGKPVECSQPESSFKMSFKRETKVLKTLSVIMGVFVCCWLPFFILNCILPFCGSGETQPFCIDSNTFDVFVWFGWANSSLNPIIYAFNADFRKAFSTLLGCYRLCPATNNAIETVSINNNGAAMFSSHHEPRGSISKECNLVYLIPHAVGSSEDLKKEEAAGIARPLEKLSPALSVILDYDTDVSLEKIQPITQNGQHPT
T16 sequence (P35462 whole entry): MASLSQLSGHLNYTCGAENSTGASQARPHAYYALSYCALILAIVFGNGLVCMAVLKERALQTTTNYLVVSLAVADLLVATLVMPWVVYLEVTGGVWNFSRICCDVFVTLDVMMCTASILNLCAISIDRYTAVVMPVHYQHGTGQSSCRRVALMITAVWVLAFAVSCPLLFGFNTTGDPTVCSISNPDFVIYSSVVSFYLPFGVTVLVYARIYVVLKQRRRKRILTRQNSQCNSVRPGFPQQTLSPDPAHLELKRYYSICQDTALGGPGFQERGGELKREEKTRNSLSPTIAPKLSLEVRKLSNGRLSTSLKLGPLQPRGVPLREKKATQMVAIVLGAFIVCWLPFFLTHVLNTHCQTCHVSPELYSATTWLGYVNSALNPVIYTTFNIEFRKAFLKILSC
T26 sequence (P35348 whole entry): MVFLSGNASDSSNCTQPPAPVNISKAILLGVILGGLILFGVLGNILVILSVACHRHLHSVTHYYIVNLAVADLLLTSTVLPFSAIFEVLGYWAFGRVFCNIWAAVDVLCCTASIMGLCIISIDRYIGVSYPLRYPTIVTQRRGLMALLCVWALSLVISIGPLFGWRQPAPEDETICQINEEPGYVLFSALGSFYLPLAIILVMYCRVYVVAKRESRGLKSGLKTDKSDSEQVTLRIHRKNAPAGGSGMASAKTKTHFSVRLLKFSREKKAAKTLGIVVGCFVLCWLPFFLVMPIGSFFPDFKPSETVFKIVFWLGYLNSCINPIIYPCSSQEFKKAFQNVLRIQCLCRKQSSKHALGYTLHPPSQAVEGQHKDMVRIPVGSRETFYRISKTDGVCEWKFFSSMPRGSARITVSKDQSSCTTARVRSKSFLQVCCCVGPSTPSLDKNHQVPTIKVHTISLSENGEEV
T3 sequence (P21918 whole entry): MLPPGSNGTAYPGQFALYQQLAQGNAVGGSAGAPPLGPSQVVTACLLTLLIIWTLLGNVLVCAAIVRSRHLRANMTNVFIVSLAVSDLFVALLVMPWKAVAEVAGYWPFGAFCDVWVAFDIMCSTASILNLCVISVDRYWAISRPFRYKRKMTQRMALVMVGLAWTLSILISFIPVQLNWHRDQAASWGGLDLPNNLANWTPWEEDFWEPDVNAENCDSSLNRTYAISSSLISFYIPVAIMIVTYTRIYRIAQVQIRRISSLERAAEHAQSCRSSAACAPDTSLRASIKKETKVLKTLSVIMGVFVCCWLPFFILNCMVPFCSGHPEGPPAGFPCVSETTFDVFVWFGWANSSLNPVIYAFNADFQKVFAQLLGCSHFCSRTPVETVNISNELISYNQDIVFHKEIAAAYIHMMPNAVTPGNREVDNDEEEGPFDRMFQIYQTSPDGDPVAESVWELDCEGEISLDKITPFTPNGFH

SMILES	Binding activity, 5-HT1D (percentage) [1] [%]	Binding activity, DAT (percentage) [2] [%]	Binding activity, D5 (percentage) (D5 (dopamine receptor)) [%]	Binding activity, 5-HT2B (percentage) [3] [%]	Binding activity, Alpha2B (percentage) [4] [%]	Binding activity, 5-HT3 (percentage) [5] [%]	Binding activity, DOR (percentage) (DOR (δ-opioid receptor)) [%]	Binding activity, M3 (percentage) (M3 (muscarinic receptor)) [%]	Binding activity, M5 (percentage) (M5 (muscarinic receptor)) [%]	Binding activity, 5-HT2A (percentage) [6] [%]	Binding activity, 5-hT1e (percentage) [7] [%]	Binding activity, Beta2 (percentage) [8] [%]	Binding activity, 5-HT1B (percentage) [9] [%]	Binding activity, 5-hT5a (percentage) [10] [%]	Binding activity, D1 (percentage) (D1 (dopamine receptor)) [%]	Binding activity, D3 (percentage) (D3 (dopamine receptor)) [%]	Binding activity, Beta3 (percentage) [11] [%]	Binding activity, Beta1 (percentage) [12] [%]	Binding activity, 5-HT2C (percentage) [13] [%]	Binding activity, Alpha2C (percentage) [14] [%]	other results
O=C(O)CCc1ccc(O)c(O)c1 [DHCA, 3(3,4-dihydroxy-phenyl) propionic acid]	11.7	34.5	5.1	−7	−2.3	−11.7	9.5	9.4	21.2	18	−1.7	−7.6	−11.8	4.2	−3.7	−18.8	−15.8	−14.1	−9.9	27.3	Binding activity, SERT (percentage) [15]: −0.9%; Binding activity, PBR (percentage) [16]: −13.3%; Binding activity, M4 (percentage) (M4 (muscarinic receptor)): 3%; Binding activity, Alpha1D (percentage) [17]: −15.4%; Binding activity, D4 (percentage) (D4 (dopamine receptor)): 1.9%; Binding activity, Alpha2A (percentage) [18]: 15.7%; Binding activity, Alpha1A (percentage) [19]: 4%; Binding activity, D2 (percentage) (D2 (dopamine receptor)): −5.7%; Binding activity, 5-HT6 (percentage) [20]: 24.2%; Binding activity, MOR (percentage) (MOR (µ-opioid receptor)): −7.1%; Binding activity, M1 (percentage) (M1 (muscarinic receptor)): −1.8%; Binding activity, Alpha1B (percentage) [21]: 11.1%; Binding activity, BZP RBS (percentage) [22]: −5.2%
COc1cc(-c2[o+]c3cc(O)cc(O)c3cc2O[C@@H]2O[C@H](CO)[C@@H](O)[C@H](O)[C@H]2O)cc(OC)c1O [Mal-gluc]	54	−18.2	−2	−13.8	−5.9	74.1	−10.2	23.6	−10.2	−10.5	10.3	1.9	10.4	5.2	−10.3	7.2	−17.7	−15.5	−6.9	−11	Ki ([1]; secondary radioligand binding assay, read-out: calculated inhibitory constant (Ki), 5-HT1D): > 10 µM; Ki ([5]; secondary radioligand binding assay, read-out: calculated inhibitory constant (Ki), 5-HT3): 4.3 µM; Binding activity, SERT (percentage) [15]: 7.8%; Binding activity, PBR (percentage) [16]: 15.7%; Binding activity, M4 (percentage) (M4 (muscarinic receptor)): −4.6%; Binding activity, Alpha1D (percentage) [17]: −1.3%; Binding activity, D4 (percentage) (D4 (dopamine receptor)): −2%; Binding activity, Alpha2A (percentage) [18]: 7.3%; Binding activity, Alpha1A (percentage) [19]: −4.5%; Binding activity, D2 (percentage) (D2 (dopamine receptor)): 7.2%; Binding activity, 5-HT6 (percentage) [20]: −18.5%; Binding activity, MOR (percentage) (MOR (µ-opioid receptor)): −5%; Binding activity, M1 (percentage) (M1 (muscarinic receptor)): −6.2%; Binding activity, Alpha1B (percentage) [21]: 24.4%; Binding activity, BZP RBS (percentage) [22]: 5.4%
